Measurements reported in EP4818157A1, “N-SUBSTITUTED CYCLIC AMIDE COMPOUND” (Kissei Pharmaceutical Co., Ltd., priority 2023, dated 2025).

The molecules below were run against T1, human TSHR (Homo sapiens, UniProt P16473) (assay: Measurement of antagonist activity using TSH-induced cAMP production in human TSHR-stably expressing CHO cells). Conditions: human TSH final concentration 50 ng/mL.
T1 construct: expressed in transfected cells
T1 sequence (P16473 21-764): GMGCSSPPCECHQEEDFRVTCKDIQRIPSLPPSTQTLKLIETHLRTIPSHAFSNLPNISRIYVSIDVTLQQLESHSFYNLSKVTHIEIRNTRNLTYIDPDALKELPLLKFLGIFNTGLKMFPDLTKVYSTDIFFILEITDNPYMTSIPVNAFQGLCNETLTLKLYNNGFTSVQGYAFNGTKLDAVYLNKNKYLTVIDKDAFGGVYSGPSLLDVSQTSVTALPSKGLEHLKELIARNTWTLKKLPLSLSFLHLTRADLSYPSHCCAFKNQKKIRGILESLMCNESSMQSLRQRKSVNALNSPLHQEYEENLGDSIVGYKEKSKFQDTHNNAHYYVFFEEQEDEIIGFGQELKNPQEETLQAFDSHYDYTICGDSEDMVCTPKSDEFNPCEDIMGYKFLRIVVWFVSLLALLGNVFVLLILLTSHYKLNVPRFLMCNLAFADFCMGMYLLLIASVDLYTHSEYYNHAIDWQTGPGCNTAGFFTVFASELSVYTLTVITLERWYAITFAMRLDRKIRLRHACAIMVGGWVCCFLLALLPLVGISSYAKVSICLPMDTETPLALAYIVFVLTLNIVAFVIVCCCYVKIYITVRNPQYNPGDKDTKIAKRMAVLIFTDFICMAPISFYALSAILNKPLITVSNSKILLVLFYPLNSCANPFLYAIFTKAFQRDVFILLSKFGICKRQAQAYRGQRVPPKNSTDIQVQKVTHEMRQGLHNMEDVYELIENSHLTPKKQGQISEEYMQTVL
Type: cell-based
Description: Measurement of Antagonist Activity Using TSH-induced cAMP Production in Human TSHR-stably Expressing CHO Cells as an Indicator
A gene sequence of human TSHR (reference number NM_000369.2) was inserted into a multiple cloning site of pcDNA3.1(+). The prepared plasmid vector was introduced into CHO cells by a lipofection method to establish human TSHR stably expressing CHO cells. The obtained cells were seeded in a poly-D-lysine-coated 96-well plate at 5 x 10^4 cells/well, and cultured for 1 day in F12 medium containing 10% FBS, 400 µg/mL G418, 50 U/mL penicillin, and 50 µg/mL streptomycin under conditions of 37°C and 5% CO2. After removing a medium, the cells were washed twice with 100 µL per well of an assay buffer (Hanks' Balanced Salt Solution containing 20 mM HEPES and 1 mM IBMX). 30 µL of an assay buffer containing a test compound was added to a well, and the mixture was incubated at room temperature for 15 minutes. Next, 30 µL of an assay buffer containing human TSH (R&D Systems, Inc., final concentration 50 ng/mL) was added, and the mixture was incubated at 37°C for 1 hour. The supernatant was removed, and Lysis and Detection Buffer 2 (Cisbio) was added to prepare a cell lysate by incubating at room temperature for 1 hour. According to the instructions for use of a cAMP Gs HiRange kit (Cisbio), a cell lysate was reacted with d2-labeled cAMP and an anti-cAMP Europium Cryptate labeled antibody (Cisbio) in a 384-well white microplate. Next, a fluorescence intensity ratio (measurement wavelengths 665 nm/620 nm) was measured using a multiplate reader (PHERAstar FSX, BMG LABTECH Japan). A fluorescence intensity ratio of each sample was converted into a cAMP content using a standard curve. A cAMP content was converted into a percentage of a control value, and a cAMP production rate was calculated. Using Prism (Graph Pad Software Inc.), a cAMP production rate was plotted against a test compound concentration, and an IC50 value was calculated. The IC50 of each test compound is shown in the above tables. In the tables, IC50 < 3.0 µM was denoted as A, and 3.0 µM ≤ IC50 < 30 µM was denoted as B. The case where activity was observed but an IC50 value could not be calculated was denoted as C.
`Cc1cnc(NC(N)=O)c(=O)n1Cc1cc(C(F)(F)F)cc(Cl)c1F` [Example B-9, 1-(4-(3-chloro-2-fluoro-5-(trifluoromethyl)benzyl)-5-methyl-3-oxo-3,4-dihydropyrazin-2-yl)urea] showed an IC50 of 3 to 30 µM.
`NC(=O)N[C@@H]1Cc2cscc2N(Cc2cccc(C(F)(F)F)c2)C1=O` [Example C-22, (R)-1-(2-oxo-1-(3-(trifluoromethyl)benzyl)-1,2,3,4-tetrahydrothieno[3,4-b]pyridin-3-yl)urea] gave an IC50 of less than 3 µM.
Molecule `NC(=O)N[C@@H]1Cc2ccccc2N(Cc2cccc3c2OC(F)(F)O3)C1=O` [Example C-5, (R)-1-(1-((2,2-difluorobenzo[d][1,3]dioxol-4-yl)methyl)-2-oxo-1,2,3,4-tetrahydroquinolin-3-yl)urea] has an IC50 of less than 3 µM.
With `O=C(NC1CC1)N[C@@H]1CC[C@@H](C(F)F)N(Cc2cc(C(F)(F)F)ccc2F)C1=O` [Example A-26, 1-cyclopropyl-3-((3R,6S)-6-(difluoromethyl)-1-(2-fluoro-5-(trifluoromethyl)benzyl)-2-oxopiperidin-3-yl)urea] the IC50 was 3 to 30 µM.
`NC(=O)N[C@@H]1Cc2ccc(F)cc2N(Cc2cc(C(F)(F)F)cc(Cl)c2F)C1=O` [Example C-21, (R)-1-(1-(3-chloro-2-fluoro-5-(trifluoromethyl)benzyl)-7-fluoro-2-oxo-1,2,3,4-tetrahydroquinolin-3-yl)urea] was tested, and the IC50 was less than 3 µM.
In the case of `NC(=O)N[C@@H]1CC[C@@H](CN2CCCC2)N(Cc2cc(C(F)(F)F)ccc2F)C1=O` [Example D-5, 1-((3R,6S)-1-(2-fluoro-5-(trifluoromethyl)benzyl)-2-oxo-6-(pyrrolidin-1-ylmethyl)piperidin-3-yl)urea], the IC50 is reported as greater than 30 µM.
For `COC[C@@H]1CC[C@@H](NC(N)=O)C(=O)N1Cc1cc(C(F)(F)F)ccc1F` [Example D-6, 1-((3R,6S)-1-(2-fluoro-5-(trifluoromethyl)benzyl)-6-(methoxymethyl)-2-oxopiperidin-3-yl)urea], the IC50 was less than 3 µM.
Molecule `CC(C)(C)OC(=O)Nc1ccc2c(c1)OC(CC(N)=O)C(=O)N2Cc1cc(C(F)(F)F)ccc1F` (stereo not shown) [Example F-8, tert-butyl (2-(2-amino-2-oxoethyl)-4-(2-fluoro-5-(trifluoromethyl)benzyl)-3-oxo-3,4-dihydro-2H-benzo[b][1,4]oxazin-7-yl)carbamate] has an IC50 of less than 3 µM.
Work on `C[C@@H]1CC[C@@H](NC(N)=O)C(=O)N1Cc1cc(CCc2ccccc2)ccc1F` (relative stereo) [Example A-12, 1-((3R^*,6R^*)-1-(2-fluoro-5-phenethylbenzyl)-6-methyl-2-oxopiperidin-3-yl)urea] yielded an IC50 of less than 3 µM.
With `Cc1ccc(NC(=O)NC2CC2)c(=O)n1Cc1cc(C(F)(F)F)cc(Cl)c1F` [Example B-11, 1-(1-(3-chloro-2-fluoro-5-(trifluoromethyl)benzyl)-6-methyl-2-oxo-1,2-dihydropyridin-3-yl)-3-cyclopropylurea] the IC50 was less than 3 µM.
With `C[C@@H]1CC[C@@H](NC(N)=O)C(=O)N1Cc1cc(C(F)F)ccc1F` (relative stereo) [Example A-2, 1-((3R^*,6R^*)-1-(5-(difluoromethyl)-2-fluorobenzyl)-6-methyl-2-oxopiperidin-3-yl)urea] the IC50 was less than 3 µM.
For `NC(=O)N[C@@H]1Cc2ccc(C(F)F)cc2N(Cc2cc(C(F)(F)F)ccc2F)C1=O` [Example C-10, (R)-1-(7-(difluoromethyl)-1-(2-fluoro-5-(trifluoromethyl)benzyl)-2-oxo-1,2,3,4-tetrahydroquinolin-3-yl)urea], the IC50 was less than 3 µM.
`Cc1ccc2c(c1)N(Cc1cc(C(F)F)ccc1F)C(=O)[C@H](NC(N)=O)C2` [Example C-13, (R)-1-(1-(5-(difluoromethyl)-2-fluorobenzyl)-7-methyl-2-oxo-1,2,3,4-tetrahydroquinolin-3-yl)urea] showed an IC50 of less than 3 µM.
Molecule `Cc1ccc(NC(N)=O)c(=O)n1Cc1cc(C(F)(F)F)ccc1F` [Example B-4, 1-(1-(2-fluoro-5-(trifluoromethyl)benzyl)-6-methyl-2-oxo-1,2-dihydropyridin-3-yl)urea] has an IC50 of less than 3 µM.
With `NC(=O)N[C@@H]1CC[C@@H](C(F)F)N(Cc2cc(C(F)(F)F)ccc2F)C1=O` [Example A-17, 1-((3R,6S)-6-(difluoromethyl)-1-(2-fluoro-5-(trifluoromethyl)benzyl)-2-oxopiperidin-3-yl)urea] the IC50 was less than 3 µM.
`NC(=O)Nc1ccc(CN2CCCC2)n(Cc2cc(C(F)(F)F)cc(Cl)c2F)c1=O` [Example E-4, 1-(1-(3-chloro-2-fluoro-5-(trifluoromethyl)benzyl)-2-oxo-6-(pyrrolidin-1-ylmethyl)-1,2-dihydropyridin-3-yl)urea] was tested, and the IC50 was less than 3 µM.
For `NC(=O)N[C@@H]1C[C@H]2C[C@H]2N(Cc2cc(C(F)(F)F)ccc2F)C1=O` (relative stereo) [Example A-21, 1-((1R^*,4R^*,6S^*)-2-(2-fluoro-5-(trifluoromethyl)benzyl)-3-oxo-2-azabicyclo[4.1.0]heptan-4-yl)urea], the IC50 was less than 3 µM.
`C[C@@H]1CC[C@@H](NC(N)=O)C(=O)N1Cc1cccc(Oc2ccccc2)c1` (relative stereo) [Example A-6, 1-((3R^*,6R^*)-6-methyl-2-oxo-1-(3-phenoxybenzyl)piperidin-3-yl)urea] gave an IC50 of 3 to 30 µM.
Work on `COc1ccc2c(c1)N(Cc1cccc(C(F)(F)F)c1)C(=O)[C@H](NC(N)=O)C2` [Example C-7, (R)-1-(7-methoxy-2-oxo-1-(3-(trifluoromethyl)benzyl)-1,2,3,4-tetrahydroquinolin-3-yl)urea] yielded an IC50 of less than 3 µM.
`Cc1nc2c(s1)N(Cc1cc(C(F)(F)F)ccc1F)C(=O)[C@H](NC(N)=O)C2` [Example F-6, (R)-1-(4-(2-fluoro-5-(trifluoromethyl)benzyl)-2-methyl-5-oxo-4,5,6,7-tetrahydrothiazolo[5,4-b]pyridin-6-yl)urea] showed an IC50 of 3 to 30 µM.
Work on `NC(=O)N[C@@H]1Cc2c(F)cccc2N(Cc2cc(C(F)(F)F)ccc2F)C1=O` [Example C-9, (R)-1-(5-fluoro-1-(2-fluoro-5-(trifluoromethyl)benzyl)-2-oxo-1,2,3,4-tetrahydroquinolin-3-yl)urea] yielded an IC50 of less than 3 µM.
For `NC(=O)N[C@@H]1CC[C@@H]2CC[C@@H](Cc3ccccc3C(F)(F)F)N2C1=O` [Example D-3, 1-((3S,6R,8aR)-5-oxo-3-(2-(trifluoromethyl)benzyl)octahydroindolizin-6-yl)urea], the IC50 was 3 to 30 µM.
`Cc1ccc(NC(=O)C(F)(F)F)c(=O)n1Cc1cc(C(F)(F)F)cc(Cl)c1F` [Example E-8, N-(1-(3-chloro-2-fluoro-5-(trifluoromethyl)benzyl)-6-methyl-2-oxo-1,2-dihydropyridin-3-yl)-2,2,2-trifluoroacetamide] gave an IC50 of 3 to 30 µM.
Molecule `CN(C)C[C@@H]1CC[C@@H](NC(N)=O)C(=O)N1Cc1cc(C(F)(F)F)ccc1F` [Example D-9, 1-((3R,6S)-6-((dimethylamino)methyl)-1-(2-fluoro-5-(trifluoromethyl)benzyl)-2-oxopiperidin-3-yl)urea] has an IC50 greater than 30 µM.
`NC(=O)N[C@@H]1Cc2sccc2N(Cc2cc(C(F)(F)F)ccc2F)C1=O` [Example F-5, (R)-1-(4-(2-fluoro-5-(trifluoromethyl)benzyl)-5-oxo-4,5,6,7-tetrahydrothieno[3,2-b]pyridin-6-yl)urea] gave an IC50 of less than 3 µM.
`NC(=O)N[C@@H]1Cc2ccc(C(F)F)cc2N(Cc2cc(C(F)(F)F)ccc2CO)C1=O` [Example F-1, (R)-1-(7-(difluoromethyl)-1-(2-(hydroxymethyl)-5-(trifluoromethyl)benzyl)-2-oxo-1,2,3,4-tetrahydroquinolin-3-yl)urea] gave an IC50 of 3 to 30 µM.
`C=CCc1ccc(NC(N)=O)c(=O)n1Cc1cc(C(F)(F)F)cc(Cl)c1F` [Example E-5, 1-(6-allyl-1-(3-chloro-2-fluoro-5-(trifluoromethyl)benzyl)-2-oxo-1,2-dihydropyridin-3-yl)urea] showed an IC50 of less than 3 µM.
Work on `NC(=O)N[C@@H]1Cc2ccc(C(F)F)cc2N(Cc2cc(C(F)F)ccc2F)C1=O` [Example C-14, (R)-1-(7-(difluoromethyl)-1-(5-(difluoromethyl)-2-fluorobenzyl)-2-oxo-1,2,3,4-tetrahydroquinolin-3-yl)urea] yielded an IC50 of less than 3 µM.
`NC(=O)N[C@@H]1C[C@@H]2CCCC[C@H]2N(Cc2cccc(C(F)(F)F)c2)C1=O` (relative stereo) [Example A-29, 1-((3R^*,4aS^*,8aR^*)-(2-oxo-1-(3-(trifluoromethyl)benzyl)decahydroquinolin-3-yl)urea] showed an IC50 greater than 30 µM.
Molecule `Cc1ccc(NC(=O)N2CCC2)c(=O)n1Cc1cc(C(F)(F)F)cc(Cl)c1F` [Example E-9, N-(1-(3-chloro-2-fluoro-5-(trifluoromethyl)benzyl)-6-methyl-2-oxo-1,2-dihydropyridin-3-yl)azetidine-1-carboxamide] has an IC50 of less than 3 µM.
`NC(=O)Nc1cc(Br)cn(Cc2cc(C(F)(F)F)ccc2F)c1=O` [Example B-1, 1-(5-bromo-1-(2-fluoro-5-(trifluoromethyl)benzyl)-2-oxo-1,2-dihydropyridin-3-yl)urea] was tested, and the IC50 was less than 3 µM.
